According to ChEMBL document CHEMBL1201862, “PubChem BioAssay data set” (2004):
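A five-concentration, 48-hour dose response in 96-well plates underlies each endpoint, interpolated linearly between surrounding concentrations. GI50 is the concentration that inhibits growth by half.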 Activity calls are given as the source filed them. Cut-off read from the data, not from the text of the source: active = GI50 up to about 1.1 µM and inactive = higher.

Assays:
Assay in all cases: NCI tumour cell line growth inhibition, 48 h
786-0 = test system: 786-0
BT-549 = test system: BT-549
CCRF-CEM = test system: CCRF-CEM
COLO 205 = test system: COLO 205
HL-60 = test system: HL-60
HT-29 = test system: HT-29
Hs-578T = test system: Hs-578T
IGROV-1 = test system: IGROV-1
K562 = test system: K562
MDA-MB-435 = test system: MDA-MB-435
MOLT-4 = test system: MOLT-4
NCI-H226 = test system: NCI-H226
NCI-H460 = test system: NCI-H460
SF-268 = test system: SF-268
SK-MEL-5 = test system: SK-MEL-5
SN12C = test system: SN12C
SNB-19 = test system: SNB-19
SR = test system: SR
T47D = test system: T47D
UO-31 = test system: UO-31

Row | Structure (SMILES) | GI50 (786-0) | GI50 (BT-549) | GI50 (CCRF-CEM) | GI50 (COLO 205) | GI50 (HL-60) | GI50 (HT-29) | GI50 (Hs-578T) | GI50 (IGROV-1) | GI50 (K562) | GI50 (MDA-MB-435) | GI50 (MOLT-4) | GI50 (NCI-H226) | GI50 (NCI-H460) | GI50 (SF-268) | GI50 (SK-MEL-5) | GI50 (SN12C) | GI50 (SNB-19) | GI50 (SR) | GI50 (T47D) | GI50 (UO-31)
1 | Cc1ccc([N+](=O)[O-])c2c(NCCC[N+](C)(C)[O-])c3ccccc3nc12 | 2.02 µM (inactive) | 1.5 µM (inactive) | 2.07 µM (inactive) | 1.02 µM (active) | 4 µM (inactive) | 1.48 µM (inactive) | 3.24 µM (inactive) | 1.19 µM (inactive) | 1.52 µM (inactive) | 1.77 µM (inactive) | 0.33 µM (active) | 2.24 µM (inactive) | 0.716 µM (active) | 2.47 µM (inactive) | 0.998 µM (active) | 2.19 µM (inactive) | 1.17 µM (inactive) | 0.218 µM (active) | 0.916 µM (active) | 16.1 µM (inactive)
2 | Cn1c2c3c(F)c(F)ccc3nc-2cc2ccccc21 | 0.519 µM (active) | 3 µM (inactive) | 1.91 µM (inactive) | 2.08 µM (inactive) | 13 µM (inactive) | 1.52 µM (inactive) | 12.2 µM (inactive) | 3.42 µM (inactive) | 3.11 µM (inactive) | 3.88 µM (inactive) | 0.324 µM (active) | 2.59 µM (inactive) | 1.04 µM (active) | 3.24 µM (inactive) | 3.04 µM (inactive) | 0.861 µM (active) | 3.79 µM (inactive) | 2.33 µM (inactive) | 0.582 µM (active) | 1.36 µM (inactive)
3 | CS(=O)(=O)OC1CCN(C2(c3cccc(O)c3)CCCCC2)CC1 | 27.4 µM (inactive) | 46.2 µM (inactive) | 22.6 µM (inactive) | 32.6 µM (inactive) | 16.5 µM (inactive) | 36.1 µM (inactive) | > 100 µM (inactive) | 28.7 µM (inactive) | 39.6 µM (inactive) | 29.2 µM (inactive) | 27.8 µM (inactive) | > 100 µM (inactive) | 48.5 µM (inactive) | 71.3 µM (inactive) | 43.5 µM (inactive) | 32.9 µM (inactive) | > 100 µM (inactive) | 23.6 µM (inactive) | 70.6 µM (inactive) | 44.7 µM (inactive)
4 | CO/N=C(/C(=O)OC)c1ccccc1COc1ccccc1C(F)(F)F | 43.6 µM (inactive) | 79.1 µM (inactive) | 13 µM (inactive) | 25.4 µM (inactive) | 10.5 µM (inactive) | 26.1 µM (inactive) | 47.3 µM (inactive) | 20.7 µM (inactive) | 19.6 µM (inactive) | 24.4 µM (inactive) | 15.1 µM (inactive) | 68.4 µM (inactive) | 32.4 µM (inactive) | 32.6 µM (inactive) | 6.22 µM (inactive) | 61.8 µM (inactive) | 98.2 µM (inactive) | 8.32 µM (inactive) | 25.2 µM (inactive) | 39.1 µM (inactive)
